The target of data set [1] is Transient receptor potential cation channel subfamily V member 1 (Homo sapiens, UniProt Q8NER1). Nature of the data set: Antagonist activity at human TRPV1 by calcium influx assay. It counts as functional.
Data set [2] can be described thus: Half life in rat at 10 umol/kg, iv. As to conditions: in vivo. The format is ADME, organism-based.
The nature of data set [3]: Volume of distribution in rat at 10 umol/kg, iv. It counts as ADME, organism-based. The following applies: in vivo, read-out: Vbeta.
Data set [4] can be described thus: Bioavailability in rat at 10 umol/kg, po. It counts as ADME, organism-based. The following applies: in vivo.
Data set [5] can be described thus: Half life in dog at 10 umol/kg, iv. It counts as ADME, organism-based, Canis lupus familiaris. As to conditions: in vivo.
A short description of data set [6]: Volume of distribution in dog at 10 umol/kg, iv. The format is ADME, organism-based, Canis lupus familiaris. As to conditions: in vivo, read-out: Vbeta.
Data set [7] can be described thus: Plasma clearance in rat at 10 umol/kg, iv. The format is ADME, organism-based.
The nature of data set [8]: Plasma clearance in dog at 10 umol/kg, iv. It counts as ADME, organism-based, Canis lupus familiaris.
Data set [9] is described as follows: Bioavailability in dog at 10 umol/kg, po. It counts as ADME, organism-based, Canis lupus familiaris. The following applies: in vivo.

From ChEMBL document CHEMBL1145370, “Alpha-methylation at benzylic fragment of N-aryl-N'-benzyl ureas provides TRPV1 antagonists with better pharmacokinetic properties and higher efficacy in inflammatory pain model” (Bioorg Med Chem Lett, 2007) come the findings set out here.

Transient receptor potential cation channel subfamily V member 1, sequence (Q8NER1 whole entry): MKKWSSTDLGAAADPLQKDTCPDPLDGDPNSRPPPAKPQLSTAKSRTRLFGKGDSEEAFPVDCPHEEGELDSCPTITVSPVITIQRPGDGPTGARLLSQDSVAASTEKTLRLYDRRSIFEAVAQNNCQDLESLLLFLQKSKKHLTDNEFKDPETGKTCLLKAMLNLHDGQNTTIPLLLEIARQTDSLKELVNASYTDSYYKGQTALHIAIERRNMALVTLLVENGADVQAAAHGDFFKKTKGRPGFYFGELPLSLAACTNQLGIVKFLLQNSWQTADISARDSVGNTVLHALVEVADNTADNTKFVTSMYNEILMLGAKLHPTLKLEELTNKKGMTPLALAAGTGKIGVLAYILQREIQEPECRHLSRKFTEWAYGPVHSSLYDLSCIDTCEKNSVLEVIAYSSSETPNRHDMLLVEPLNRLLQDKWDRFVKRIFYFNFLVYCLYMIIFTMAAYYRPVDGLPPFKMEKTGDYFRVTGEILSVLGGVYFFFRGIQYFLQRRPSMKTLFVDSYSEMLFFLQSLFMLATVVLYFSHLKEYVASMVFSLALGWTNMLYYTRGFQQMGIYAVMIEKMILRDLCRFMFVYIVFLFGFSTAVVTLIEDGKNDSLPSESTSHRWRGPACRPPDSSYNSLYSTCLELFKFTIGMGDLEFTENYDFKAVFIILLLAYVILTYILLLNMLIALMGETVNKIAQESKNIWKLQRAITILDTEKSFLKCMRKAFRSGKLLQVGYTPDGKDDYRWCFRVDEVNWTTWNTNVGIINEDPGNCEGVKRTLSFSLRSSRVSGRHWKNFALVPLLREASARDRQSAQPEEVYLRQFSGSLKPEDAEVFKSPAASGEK

One may read the IC50 as the concentration needed to halve the response being measured. For `CC(C)(NC(=O)Nc1cccc2cnccc12)c1ccc(Cl)cc1`, the half-inhibitory concentration (IC50) in data set [1] was found to be 143 nM.
The half-life is the time needed for the level to fall by half in the phase considered. Read a low half-life as rapid decline. By bioavailability is commonly meant dose-corrected exposure relative to a reference, in per cent. High values mean good availability, low ones poor availability. For `C[C@@H](NC(=O)Nc1cccc2[nH]ncc12)c1ccc(C(F)(F)F)cc1`, the IC50 in [1] came to 41 nM. The compound further gave a half-life in data set [2] of 2.1 h. Further, the Vd in data set [3] was 2.9 L/kg. For the same compound, in data set [4], the bioavailability came out at 53%.
Turning to `CC(NC(=O)Nc1cccc2cnccc12)c1ccc(C(C)(C)C)cc1C(C)(C)C` (stereo not given), the IC50 in data set [1] was determined as 17 nM.
Take `C[C@H](NC(=O)Nc1cccc2[nH]ncc12)c1ccc(C(F)(F)F)cc1`: the IC50 in [1] was 248 nM.
On the same count and under the same terms, as for `O=C(Nc1cccc2cnccc12)NC(c1ccccc1)c1ccc(C(F)(F)F)cc1` (stereo not given), the figure is 147 nM; as for `O=C(Nc1cccc2cnccc12)NC(c1ccc(C(F)(F)F)cc1)C1CCCCC1` (stereo not given), 287 nM; as for `CCC(NC(=O)Nc1cccc2cnccc12)c1ccc(C(F)(F)F)c(F)c1` (stereo not given), 109 nM.
By clearance is commonly meant a measure of how efficiently the substance is removed, as volume per time. Read a low clearance as inefficient removal. Take `O=C(NCc1ccc(C(F)(F)F)cc1)Nc1cccc2cnccc12`: the results for the half-life in data set [2] and in data set [5] were 0.6 h and 1 h, respectively. Moreover, the Vd in [3] came to 0.6 L/kg; in [6], 0.5 L/kg. Also, the clearance in data set [7] is 10 mL/min/kg; in data set [8] it was 6.67 mL/min/kg. In addition, in data set [9], the bioavailability stood at 32%.
As for `CC(C)(NC(=O)Nc1cccc2cnccc12)c1ccc(C(F)(F)F)cc1`, the IC50 in data set [1] came to 94 nM.
On to `CC(NC(=O)Nc1cccc2cnccc12)c1ccc(C(F)(F)F)cc1` (stereo not given), for which the IC50 in data set [1] was determined as 22 nM. Also, the half-life in data set [2] is 1.1 h; in data set [5], 1.6 h. For the same compound, the Vd in data set [3] and in data set [6] was 1.1 L/kg in each case. The clearance in data set [7] was 11.7 mL/min/kg; in data set [8], 8.33 mL/min/kg. Further, the bioavailability in [4] stood at 47%; in [9], 98%.
On to `CC(NC(=O)Nc1cccc2cnccc12)c1ccc(C(C)(C)C)cc1` (stereo not given), for which the IC50 in [1] amounted to 24 nM.
With `CCC(NC(=O)Nc1cccc2cnccc12)c1ccccc1` (stereo not given), the IC50 in data set [1] came out at 2580 nM.
For the compound `CC(NC(=O)Nc1cccc2cnccc12)c1ccc(Br)cc1` (stereo not given), the IC50 in [1] worked out at 26 nM.
Take `O=C(Nc1cccc2cnccc12)NC(c1ccc(C(F)(F)F)cc1)C1CCCC1` (stereo not given): in [1], the IC50 was 476 nM.
The same measure, in the same setting: the value for `CC(NC(=O)Nc1cccc2[nH]ncc12)c1ccc(C(F)(F)F)cc1` (racemic) was 47 nM; that for `N#CCC(NC(=O)Nc1cccc2cnccc12)c1ccccc1` (stereo not given) was 15900 nM; that for `Cc1ccc([C@H](C)NC(=O)Nc2cccc3[nH]ncc23)cc1` was 749 nM.
As to `O=C(Nc1cccc2cnccc12)NC(c1ccccc1)c1ccccc1`, the half-inhibitory concentration (IC50) in [1] worked out at 600 nM.
With `C[C@H](NC(=O)Nc1cccc2[nH]ncc12)c1cccc2ccccc12`, the IC50 in [1] amounted to 3750 nM.
On the same count and under the same terms, as for `CN(C)CC(NC(=O)Nc1cccc2cnccc12)c1ccccc1` (stereo not given), the figure is 31000 nM.
Take `CCc1cc(C(C)(C)C)ccc1C(C)NC(=O)Nc1cccc2cnccc12` (stereo not given): in data set [1], the IC50 was determined as 20 nM.
On to `O=C(Nc1cccc2cnccc12)NC(c1ccc(C(F)(F)F)cc1)C1CC1` (stereo not given), for which the IC50 in [1] is 149 nM.
Same read-out and setting: the value for `O=C(Nc1cccc2cnccc12)NC(c1ccccc1)c1ccc(N2CCCCC2)cc1` (stereo not given) was 171 nM.
On the same count and under the same terms, the value for `CC(C)(C)c1ccc(C(NC(=O)Nc2cccc3cnccc23)c2ccccc2)cc1` (stereo not given) was 125 nM; that for `C[C@@H](NC(=O)Nc1cccc2[nH]ncc12)c1cccc2ccccc12` was 123 nM; that for `Cc1ccc([C@@H](C)NC(=O)Nc2cccc3[nH]ncc23)cc1` was 73 nM.
For the compound `Cc1cc(C(C)(C)C)ccc1C(C)NC(=O)Nc1cccc2cnccc12` (stereo not given), the IC50 in data set [1] was 46 nM.
For `CC(NC(=O)Nc1cccc2cnccc12)c1ccc(C(F)(F)F)c(F)c1` (stereo not given), the IC50 in data set [1] turned out to be 19 nM.
